Read-outs that look alike come from different tables or passages of the source.
Assays:
[1] = test system: HCT116 FOP control reporter cell line; experiment: HCT116 FOP control vector reporter assay (non-functional TCF elements); type: cell-based; conditions: HCT116 FOP control reporter cells, luciferase expression, 36 hours incubation, 50 μM to 15 nM, read-out: HCT116 FOPFlash IC50
How it was run: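 Stable HCT116 line carrying the non-functional FOP luciferase construct, 10000 cells/well plated 24 hrs before. Compounds 50 μM to 15 nM (3.16-fold steps) in CAFTY buffer pH 7.4 with 2 mM Ca2+, 36 hours at 37° C; luciferase luminescence read.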

[2] = test system: constitutive active colorectal cancer cell (CRC) Wnt pathway; experiment: HCT116 Super TopFlash cellular reporter assay (constitutive active Wnt pathway); type: cell-based; conditions: HCT116 TOP reporter cells, luciferase expression, 36 hours incubation, 50 μM to 15 nM
How it was run: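 HCT116 cells (β-catenin ΔS45) stably carrying Super TopFlash, with a parallel FOP-control line, were plated 24 h ahead. They were exposed 36 h at 37 °C, 5% CO2 to compound from a 50 μM–15 nM, 3.16-fold pre-dilution series in CAFTY buffer (pH 7.4, 2 mM Ca2+, 0.01% BSA). Wnt signalling was read as luciferase luminescence.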

SMILES	IC50 ([1]; Homo sapiens, HCT-116, 36 h) [µM]	IC50 ([2]; Homo sapiens, HCT-116, 36 h) [µM]	IC50 [1] [µM]	IC50 [2] [µM]
COc1ccc(NC(=O)c2ccc(-c3ccc(CN)cc3)cc2)cc1NC(=O)CN1CCOCC1 [Example 120, 4′-(aminomethyl)-N-{4-methoxy-3-[(morpholin-4-ylacetyl)amino]phenyl}biphenyl-4-carboxamide]	≥ 50	0.755		
O=C(CN1CCOCC1)Nc1cc(C(=O)Nc2ccc(-c3ccccc3)cc2)ccc1OCCCO [Example 121, N-(biphenyl-4-yl)-4-(3-hydroxypropoxy)-3-[(morpholin-4-ylacetyl)amino]benzamide]	≥ 50	0.237		
NC(=O)COc1ccc(C(=O)Nc2ccc(-c3ccccc3)cc2)cc1NC(=O)CN1CCOCC1 [Example 122, 4-(2-amino-2-oxoethoxy)-N-(biphenyl-4-yl)-3-[(morpholin-4-ylacetyl)amino]benzamide]	15.5	0.338		
COc1ccc(C(=O)Nc2ccc(-c3cc(F)cc(F)c3)c(F)c2)cc1NC(=O)CN1CCOCC1 [Example 123, 4-methoxy-3-[(morpholin-4-ylacetyl)amino]-N-(2,3′,5′-trifluorobiphenyl-4-yl)benzamide]	≥ 50	0.4		
CN1CCN(CC(=O)Nc2cc(C(=O)Nc3ccc(-c4ccccc4)cc3)ccc2CS(C)(=O)=O)CC1 [Example 125, N-(biphenyl-4-yl)-3-{[(4-methylpiperazin-1-yl)acetyl]amino}-4-[(methylsulfonyl)methyl]benzamide]	8.9	0.105		
CC(=O)NCCCOc1ccc(C(=O)Nc2ccc(-c3ccccc3)cc2)cc1NC(=O)CN1CCOCC1 [Example 126, 4-(3-acetamidopropoxy)-N-(biphenyl-4-yl)-3-[(morpholin-4-ylacetyl)amino]benzamide]	≥ 50	0.222		
O=C(CN1CC2CCC(C1)O2)Nc1cc(C(=O)Nc2ccc(-c3ccccc3)cc2)ccc1OC1CC1 [Example 128, N-(biphenyl-4-yl)-4-(cyclopropyloxy)-3-[(8-oxa-3-azabicyclo[3.2.1]oct-3-ylacetyl)amino]benzamide]	≥ 50	0.074		
COc1ccc(NC(=O)c2ccc(-c3ccccc3)cc2)cc1NC(=O)C1(NC(=O)OC(C)(C)C)CC1 [Example 129, tert-butyl[1-({5-[(biphenyl-4-ylcarbonyl)amino]-2-methoxyphenyl}carbamoyl)cyclopropyl]carbamate]	11	0.195		
COCCNCC(=O)Nc1cc(NC(=O)c2ccc(-c3ccccc3)cc2)ccc1OC(F)(F)F [Example 130, N-[3-{[N-(2-methoxyethyl)glycyl]amino} -4-(trifluoromethoxy)phenyl] biphenyl-4-carboxamide]	28	0.248		
COc1ccc(C(=O)Nc2ccc(-c3ccccc3)cc2)cc1NC(=O)C1(N2CCN(C)CC2)CC1 [Example 133, N-(biphenyl-4-yl)-4-methoxy-3-({[1-(4-methylpiperazin-1-yl)cyclopropyl]carbonyl}amino)benzamide]			30	0.362
COc1c(F)cc(C(=O)Nc2ccc(-c3ccccc3)cc2)cc1NC(=O)CN1CCOCC1 [Example 134, N-(biphenyl-4-yl)-3-fluoro-4-methoxy-5-[(morpholin-4-ylacetyl)amino]benzamide]	≥ 50	0.398		
NC(C(=O)Nc1cc(NC(=O)c2ccc(-c3ccccc3)cc2)ccc1OC(F)(F)F)C(F)(F)F (centres unmarked) [Example 135, N-{3-[(333-trifluoroalanyl)amino]-4-[trifluoromethoxy)phenyl) biphenyl-4-carboxamide]	≥ 50	0.592		
COc1c(Cl)cc(C(=O)Nc2ccc(-c3ccccc3)cc2)cc1NC(=O)CN1CCOCC1 [Example 136, N-(biphenyl-4-yl)-3-chloro-4-methoxy-5-[(morpholin-4-ylacetyl]amino]benzamide]	38.5	0.75		
COc1ccc(C(=O)Nc2ccc(-c3ccccc3)cc2)cc1NC(=O)[C@@H](C(C)C)N1CCOCC1 [Example 137, N-(biphenyl-4-yl)-4-methoxy-3-{[(2R)-3-methyl-2-(morpholin-4-yl)butanoyl]amino} benzamide]	33	0.925		
COc1ccc(NC(=O)c2ccc(-c3ccccc3)cc2)cc1NC(=O)Cc1ccc(F)cc1 [Example 138, N-(3-{[(4-fluorophenyl)acetyl]amino}-4-methoxyphenyl)biphenyl-4-carboxamide]	≥ 50	1.2		
CC(CN1CCOCC1)C(=O)Nc1cc(C(=O)Nc2ccc(-c3ccccc3)cc2)ccc1C(F)(F)F (centres unmarked) [Example 139, N-(biphenyl-4-yl)-3-{[2-methyl-3-(morpholin-4-yl)propanoyl]amino}-4-(trifluoromethyl)benzamide]	≥ 50	1.43		

SMILES	IC50 ([1]; Homo sapiens, HCT-116, 36 h) [µM]	IC50 ([2]; Homo sapiens, HCT-116, 36 h) [µM]	IC50 [1] [µM]	IC50 [2] [µM]
O=C(CNCCO)Nc1cc(NC(=O)c2ccc(-c3ccccc3)cc2)ccc1OC(F)(F)F [Example 140, N-[3-{[N-(2-hydroxyethyl)glycyl]amino}-4-(trifluoromethoxy)phenyl] biphenyl-4-carboxamide]	25	1.7		
COc1ccc(NC(=O)c2ccc(-c3ccccc3)cc2)cc1NC(=O)CCN1CCOCC1 [Example 141, N-(4-methoxy-3-{[3-(morpholin-4-yl)propanoyl]amino}phenyl) biphenyl-4-carboxamide]	≥ 50	2.5		
COc1ccc(NC(=O)c2ccc(-c3ccccc3)cc2)cc1NC(=O)Cc1cccc(F)c1 [Example 142, N-(3-{[(3-fluorophenyl)acetyl]amino}-4-methoxyphenyl)biphenyl-4-carboxamide]	≥ 50	2.85		
COc1cccc(CC(=O)Nc2cc(NC(=O)c3ccc(-c4ccccc4)cc3)ccc2OC)c1 [Example 143, N-(4-methoxy-3-{[(3-methoxyphenyl}acetyl]amino}phenyl)biphenyl-4-carboxamide]	≥ 50	3.3		
COc1ccc(CC(=O)Nc2cc(NC(=O)c3ccc(-c4ccccc4)cc3)ccc2OC)cc1 [Example 144, N-(4-methoxy-3-{[(4-methoxyphenyl)acetyl]amino}phenyl)biphenyl-4-carboxamide]	≥ 50	3.85		
COc1ccc(NC(=O)c2ccc(-c3ccccc3)cc2)cc1NC(=O)CC1CCCCC1 [Example 145, N-{3-((cyclohexylacetyl)amino]-4-methoxyphenyl}biphenyl-4-carboxamide]	≥ 50	4.8		
COC(=O)c1ccc(C(=O)Nc2ccc(-c3ccccc3)cc2)cc1NC(=O)C1(N2CCOCC2)CC1 [Example 147, methyl 4-(biphenyl-4-ylcarbamoyl)-2-({[1-(morpholin-4-yl)cyclopropyl]carbonyl}amino)benzoate]	≥ 50	0.0102		
O=C(Nc1ccc(OC(F)(F)F)c(NC(=O)C2(N3CCOCC3)CC2)c1)c1ccc(-c2ccccc2)cc1 [Example 148, N-[3-({[1-(morpholin-4-yl)cyclopropyl]carbonyl}amino)-4-(trifluoromethoxy)phenyl] biphenyl-4-carboxamide]	≥ 50	0.0122		
COCc1ccc(C(=O)Nc2ccc(-c3ccccc3)cc2)cc1NC(=O)C1(N2CCN(C3CC3)CC2)CC1 [Example 149, N-(biphenyl-4-yl)-3-({[1-(4-cyclopropylpiperazin-1-yl)cyclopropyl]carbonyl}amino)-4-(methoxymethyl)benzamide]	15	0.0133		
COc1ccc(NC(=O)c2ccc(-c3ccccc3)cc2)cc1NC(=O)C1(N2CCOCC2)CC1 [Example 150, N-[4-methoxy-3-({[1-(morpholin-4-yl)cyclopropyl]carbonyl}amino)phenyl]biphenyl-4-carboxamide]	≥ 50	0.0262		
O=C(Nc1ccc(-c2ccccc2)cc1)c1ccc(F)c(NC(=O)C2(N3CCOCC3)CC2)c1 [Example 151, N-(biphenyl-4-yl)-4-fluoro-3-({[1-(morpholin-4-yl)cyclopropyl]carbonyl}amino)benzamide]	≥ 50	0.0282		
O=C(Nc1ccc(-c2ccccc2)cc1)c1ccc(Br)c(NC(=O)C2(N3CCOCC3)CC2)c1 [Example 152, N-(biphenyl-4-yl)-4-bromo-3-({[1-(morpholin-4-yl)cyclopropyl]carbonyl}amino)benzamide]	29	0.0338		
COc1ccc(C(=O)Nc2ccc(-c3ccccc3)cc2)cc1NC(=O)[C@@H](C)N1CCOCC1 [Example 153, N-(biphenyl-4-yl)-4-methoxy-3-{[(2R)-2-(morpholin-4-yl)propanoyl]amino} benzamide]	≥ 50	0.044		
COCc1ccc(C(=O)Nc2ccc(-c3ccccc3)cc2)cc1NC(=O)CN1CC2CCC(C1)O2 [Example 154, N-(biphenyl-4-yl)-4-(methoxymethyl)-3-[(8-oxa-3-azabicyclo[3.2.1]oct-3-ylacetyl)amino]benzamide]	42.5	0.0476		
CC(C)NC(=O)c1ccc(C(=O)Nc2ccc(-c3ccccc3)cc2)cc1NC(=O)CN1CCOCC1 [Example 155, N^4-(biphenyl-4-yl)-2-[(morpholin-4-ylacetyl)amino]-N^1-(propan-2-yl)benzene-1,4-dicarboxamide]	≥ 50	0.0498		

From patent publication US20160052898A1, “NOVEL COMPOUNDS” (BAYER PHARMA AKTIENGESELLSCHAFT, priority 2013, published 2016)
